Laboratory results reported in patent publication US11135219B2, “Methods of treating or preventing Zika virus infection” (priority 2017, dated 2021).

Columns and labels:
[1] = test system: Viral E protein; assay: Western blot analysis of E protein expression in virus-infected cells; format: cell-based, Zika virus
Description: FIGS. 3A-3C show validation of the antiviral effect of TPB in the μM range. (FIG. 3A) Cells infected with PRVABC59 virus were incubated in the presence of various concentrations of TPB for 96 hours. Culture supernatants were titrated for viral genome copies (FIG. 3A) and infectious virus (FIG. 3B). Data are from three independent experiments with error bars showing±SEM. Statistical analysis was performed using unpaired two-tailed Student's t-test to determine significance of difference. […]. (FIG. 3C) Western blot analysis of E protein expression in virus-infected cells in the presence of various concentrations of TPB. Relative mobility of molecular mass markers are shown on the left.

[2] = test system: Zika virus strain MR766; assay: Inhibition of MR766 virus growth by TPB; format: cell-based; settings: μM range TPB concentrations tested
Description: (§1) Vero cells were seeded in a 96-well plate with the density of 6000 cells per well. In the initial screening study, the compound (1 μM)-virus (0.1 PFU/cell) mixture in virus growth medium (VGM) [DMEM containing 2% FBS, PS, 20 mM hydroxyethyl piperazine ethane sulfonic acid (HEPES), 1 mM sodium pyruvate, and non-essential amino acids] was added to the cells and incubated for 72 h. In a separate experiment conducted using 12-well plates, the cells were first infected with the virus at 0.1 PFU/cell and following adsorption, the cells were washed twice in PBS and incubated in VGM containing 1 μM concentrations of the drugs. The cell culture media were collected at 72-96 h post-infection and assayed for infectious virus by plaque assay and viral genome copies by quantitative RT-PCR (RT-qPCR). In all subsequent studies, cells in 12-well plates were infected with ZIKV at MOI of 0.1 PFU/cell and following virus adsorption for 1 h at 37° C., VGM containing various concentrations TPB was added to the cells and incubated as above. Clarified supernatants from the infected cells were then used to determine infectious virus or genome copies as above.

[3] = ATP-based cell viability assay (CellTiter-Glo); settings: African green monkey (Cercopithecus aethiops), Vero cells, four days, read-out: CC50 (cellular cytotoxicity 50)
Description: A modified ATP based cytopathic effect (CPE) assay was used for this study based on the CPE method for anti-DENV drug development described elsewhere (see, e.g., Che et al., 2009 Int. J. Clin. Exp. Med. 2:363-373). Vero cells (approximately 30,000 per well) were seeded in a black 96-well plate for 24 hours before the experiment. Cell monolayers were treated with various concentrations of the drugs for 4 days at 37° C. The ATP concentration was measured following manufacturer's recommendations using CellTiter-Glo kit from Promega (Madison, Wis.). Luminescence was recorded using a Veritas Microplate Luminometer at 420 nm. The 50% cytotoxic concentration (CC50) was calculated by a non-linear regression analysis of the dose-response curves.

[4] = test system: Zika virus strain PRVABC59; assay: Inhibition assay: PRVABC59 ZIKV growth in Vero cells (plaque assay, RT-qPCR); format: cell-based
Description: as §1
(§2) ZIKV viral RNA was detected using RT-qPCR on a C100 Thermal Cycler and the CFX96 Real-Time system (Bio-Rad). Viral RNA (vRNA) was extracted from culture supernatant using a QlAamp Viral RNA Mini kit (Qiagen) and TaqMan Fast Virus 1-Step Master Mix (Life technologies). ZIKV primers and probe (ZIKF: CCGCTGCCCAACACAAG (SEQ ID NO:1); ZIK-R:[…] (SEQ ID NO:2); PCR Probe: ZIK-P: […] (SEQ ID NO:3)) were used for quantitative RT-PCR (RT-qPCR) with the following parameters: 50° C. 30 min, 95° C. 5 min, (95° C. 30 S, 58° C. 1 min)×40 cycles. RNA standard concentrations were determined based on the back calculation with OD values and molecular weights and were generated through serial dilution with R^2>0.95.

[5] = Pharmacokinetic study of TPB in mice (plasma LC-MS/MS); format: in vivo, Balb/C mice; settings: 10-12 h post-injection, intraperitoneal, 5 mg/kg or 25 mg/kg
Description: For PK studies, groups of Balb/C mice (n=3) were injected intraperitoneally with doses of 5 mg/kg or 25 mg/kg of body weight of TPB in 5% dextrose, plasma was collected from the animals at various times post-injection and stored at −80° C. until analysis by LC-MS/MS for TPB concentrations. Plasma drug levels were subjected to noncompartmental analysis (WinNonlin ver. 6.4 Certera Inc., Princeton, N.J.). The predicted steady-state levels>500 ng/ml were estimated using a twelve h dosing of 25 mg/kg dose of the compound in mice.
TPB was dissolved in DMSO at 1 mg/ml. Working standard solutions were then prepared in 50% methanol in water from the stock solution. Standards (an eight-point calibration curve) and quality controls (at three levels) were prepared by spiking the working standard solutions to blank mouse plasma. One hundred μl aliquot of plasma was mixed with 25 μl of internal standard spiking solution (rilpivirine 1000 ng/ml in 50% acetonitrile in water), 1.5 ml ethyl acetate was added and vortexed vigorously for 15 min. […]
An Agilent 1200 HPLC system (Agilent Technologies, CA, USA) coupled with AB Sciex API 3200 Q Trap with an electrospray ionization source (Applied Biosystems, Foster City, Calif., USA) was used. The mass transitions m/z 541.2→330.2 and 541.2→212.2 for analyte and m/z 367.2→195.2 for internal standard were monitored. […]

[6] = test system: PRVABC59 virus; assay: PRVABC59 virus growth in HTR-8 cells in the presence of TPB; format: cell-based, Zika virus; settings: human trophoblast cell line HTR-8
[7] = test system: PRVABC59 virus; assay: PRVABC59 virus growth in NTERRA cells in the presence of TPB; format: cell-based, Zika virus; settings: human testicular cell line NTERRA
[8] = in vivo; format: in vivo, Balb/C mice; settings: Balb/C, mouse, in vivo, ip, 25 mg/kg
Description: as §2
(§3) Balb/C mice were obtained from the Jackson Laboratory (Bar Harbor, Me., USA). After acclimatization for four days, groups of animals (n=6 per group) were injected intraperitoneally with 25 mg/kg body weight dose of TPB diluted in saline or saline alone (no drug control). Following three injections at 12 h intervals, 500 PFU of PRVABC59 virus diluted in PBS was inoculated into each mouse by the subcutaneous (SC) route. Blood was collected by retro-orbital bleeding under anesthesia at days 2, 3, 4, 5, and 6 post-infection. Viral genome copies in the plasma were determined by RT-qPCR.

[9] = test system: PRVABC59 virus; assay: in vivo; format: in vivo, Balb/C mice
Description: as §2, §3

[10] = test system: ZIKV; settings: cited from earlier work
[11] = test system: DENV; settings: cited from earlier work

## O=C(NC(=S)Nc1ccc(N2CCN(C(=O)c3cccs3)CC2)cc1)c1sc2ccccc2c1Cl [Compound 1, 3-chloro-N-[({4-[4-(2-thienylcarbonyl)-1-piperazinyl]phenyl}amino)carbonothioyl]-1-benzothiophene-2-carboxamide]
[1]; 0.5 μM TPB
  Viral E protein synthesis in infected cells: significantly inhibited
[1]; higher concentrations than 0.5 μM TPB
  Viral E protein synthesis in infected cells: undetectable
[2]
  MR766 virus growth inhibition: sensitive to inhibition
[3]
  CC50 at 4 days: 19.4 µM
[4]; 0.5 μM TPB, 96 hours
  Genome copy numbers in supernatants, reduction: over 100 fold
  Infectious virus in supernatants, reduction: over 100 fold
[4]; 1 μM TPB, 96 hours
  Virus growth reduction: over 1000 fold
[4]; 1 μM compound, Vero cells, 72 hours
  ZIKV growth inhibition (genome copies in culture supernatants) vs vehicle-only treated cells: > 99%
[4]; 1 μM compound, Vero cells, 96 hours
  Infectious virus yield inhibition: at least 1000 fold
[4]; 1 μM, Vero cells, PRVABC59, 96 hours post-infection
  ZIKV yield inhibition, side-by-side comparison: over 1000 fold
[4]; Vero cells
  Selectivity index 50 (SI50, CC50/IC50): 206
[4]; Zika virus, Vero, 96 h, Vero cells, PRVABC59, 96 hours post-infection, read-out: IC50 (infectious virus yield, plaque assay)
  IC50: 0.094 µM
[5]
  TPB plasma level: approximately 100 ng/ml
[6]
  PRVABC59 virus growth inhibition in HTR-8: inhibited the virus growth
[7]
  PRVABC59 virus growth inhibition in NTERRA: inhibited the virus growth
[8]
  concentration at 2 days post-infection: ~270 ng/mL
[9]; day 4 post-infection, 25 mg/kg intraperitoneal, 500 PFU ZIKV
  Viral RNA level in plasma, lower than vehicle group: ~40 fold
[9]; immunocompetent mice
  ZIKV viremia: reduced ZIKV viremia significantly

## CC[C@H](C)[C@H]1O[C@]2(CC[C@@H]1C)C[C@@H]1C[C@@H](C/C=C(\C)[C@@H](O[C@H]3C[C@H](OC)[C@@H](O[C@H]4C[C@H](OC)[C@@H](O)[C@H](C)O4)[C@H](C)O3)[C@@H](C)/C=C/C=C3\CO[C@@H]4[C@H](O)C(C)=C[C@@H](C(=O)O1)[C@]34O)O2 [IVM, Ivermectin]
[10]; 10 μM
  Inhibition of ZIKV infection: strongly

## COc1c(C)c2c(c(O)c1C/C=C(\C)CCC(=O)O)C(=O)OC2 [MPA, Mycophenolic acid]
[11]
  DENV RNA replication: inhibit DENV RNA replication
[10]; 1 μM
  Inhibition of infection of cells in vitro by ZIKV: over 99%
